This is an account of results in publication PMC9605497, “Potential of Epidermal Growth Factor-like Peptide from the Sea Cucumber Stichopus horrens to Increase the Growth of Human Cells: In Silico Molecular Docking Approach” (Marine Drugs, 2022).

The assay relates to human melanoma cells (CRL-1872). The assay is described as follows: Cell proliferation assay (cell counting). The format is cell-based. The note with it: for Average cell number: average over 0, 24, 48, 72 and 96 h; for number of cells vs serum-free medium: four days, triplicates; for duration of temporary increment of cell numbers: cell numbers dropped drastically after the medium change. As to the method:
Human melanoma cells (CRL-1872) were purchased from ATCC, Rocksville, MD, USA. Cells were cultured in a complete growth medium, which consisted of Minimum Essential Medium (MEM) (Gibco, Waltham, MA, USA) supplemented with 10% fetal bovine serum (FBS) (Invitrogen, Waltham, MA, USA) and 1% antibiotic–antimycotic (Invitrogen, Waltham, MA, USA), in a humidified incubator at 37 °C, equilibrated with 5% CO2. Cells were subcultured every two days until reaching confluency in T25 flask (TPP, Trasadingen, Switzerland) before being seeded in designated plates for specific experiment objectives.
Cells were seeded at 80,000 cells per well in a 24-well plate containing 400 µL of complete growth medium. After 24 h of culture, the medium was removed, washed once with PBS, replaced with serum-free medium and left to culture for another 16 h. The medium was removed and replaced with corresponding treatment medium, each in triplicates; 10 nM and 50 nM of Sh-EGFl-1, 10 nM and 50 nM of rhEGF were used as a positive control and serum-free medium was used as a negative control. Cells were cultured in a single plate to track their growth every 24 h during the four days of experiment. […] A crossed line was made at the bottom of each well to mark the four cell-counting areas that were recorded daily using a microscope digital camera. Cells were counted manually based on the images visualized using ImageJ version 2.0.

For the substance “H-MNSDSECPLSHDGYCLHDGVCMYIEALDKYACNCVVGYIGERCQYRDLKWWELR-OH (disulfide) [rhEGF, Recombinant human EGF purchased from Thermo Scientific, reference compound]”, the Average cell numbers is, setting by setting: (0 h, 10 nM) 2115; (0 h, 50 nM) 1331; (24 h, 10 nM) 712; (24 h, 50 nM) 1643; (48 h, 10 nM) 399; (48 h, 50 nM) 1741. In addition, the Average cell numbers is reported as 497 (72 h, 10 nM); 663 (72 h, 50 nM); 339 (96 h, 10 nM); 438 (96 h, 50 nM). In addition, the Average cell number by setting is: (10 nM) 810; (50 nM) 1166. The “number of cells vs serum-free medium” value (50 nM) was “significantly higher”. Further, for the setting “50 nM”, the “duration of temporary increment of cell numbers” value was 48 h.
In the case of “H-NINECFSSPCENQGICQDEIDGYNCVCQPGFTGTHCESSMLNHVI-OH (disulfide) [Sh-EGFl-1, 45 amino acid EGF-like peptide from Stichopus horrens contig 498513, synthesized by Fmoc solid-phase peptide chemistry]”, the Average cell numbers by setting is: (0 h, 10 nM) 1781; (0 h, 50 nM) 1382; (24 h, 10 nM) 1413; (24 h, 50 nM) 1637; (48 h, 10 nM) 1559; (48 h, 50 nM) 1753. In addition, the Average cell numbers turned out to be 1674 (72 h, 10 nM); 1094 (72 h, 50 nM); 1816 (96 h, 10 nM); 862 (96 h, 50 nM). Besides, the “number of cells vs serum-free medium” value by setting is: (10 nM) “not significantly different compared with the serum-free treatment”; (50 nM) “significantly higher”. The “cell number over time” value (10 nM, until day 4) is on record as “increased numbers until the end of the experiment on day 4”. Also, for the setting “50 nM”, the “duration of temporary increment of cell numbers” value is 48 h. For the same substance, the human cell growth result (lower concentration, cell proliferation assay) was “significantly improved”. Further, the “cell adherence, survival and proliferation” value (melanoma cells) was “cells are able to maintain their adherent properties, as well as survive and proliferate, albeit rather slowly”.
